How the values were obtained:
[1] = target: T1, Chymase (Homo sapiens) (UniProt P23946); assay: Inhibition of human chymase assessed as residual enzyme activity using chromogenic N-succinyl-Ala-Ala-Pro-Phe p-nitroanilide as substrate at 10 uM pre-incubated for 10 mins by spectrophotometry relative to untreated control; type: single protein
T1 sequence (whole entry): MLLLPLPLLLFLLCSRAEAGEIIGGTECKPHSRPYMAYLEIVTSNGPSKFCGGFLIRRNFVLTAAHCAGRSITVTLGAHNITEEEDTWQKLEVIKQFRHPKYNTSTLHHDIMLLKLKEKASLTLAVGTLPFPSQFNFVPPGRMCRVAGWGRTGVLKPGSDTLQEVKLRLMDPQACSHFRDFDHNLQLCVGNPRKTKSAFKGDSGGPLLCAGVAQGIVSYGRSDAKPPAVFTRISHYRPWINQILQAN

[2] = species: Homo sapiens; assay: Inhibition of human tryptase assessed as residual enzyme activity using chromogenic H-D-HHT-Ala-Arg-pNA 2AcOH as substrate at 10 uM pre-incubated for 10 mins measured for 30 mins by spectrophotometry relative to untreated control
[3] = Inhibition of bovine pancreatic trypsin using chromogenic N-alpha-bemzoyl-arginine ethyl ester hydrochloride as substrate pre-incubated for 10 mins by spectrophotometry; parameters: species or system Bos taurus
[4] = Ratio of Ki for bovine pancreatic trypsin to Ki for human thrombin

| SMILES | Ratio [1] | Ratio [2] | Ki [3] [µM] | Ratio Ki [4] |
| --- | --- | --- | --- | --- |
| O=S(=O)(/C=C/c1cccc(C(F)(F)F)c1)Nc1cccc(OCc2cn(Cc3cccnc3)nn2)c1 | 1 | 0.96 |  |  |
| O=S(=O)(/C=C/c1cccc(Cl)c1)Nc1cccc(OCc2cn(Cc3cccc(Cl)c3)nn2)c1 | 0.97 | 0.95 |  |  |
| COc1cccc(/C=C/S(=O)(=O)Nc2cccc(-c3nnn(Cc4cccc(Cl)c4)n3)c2)c1 | 1 | 1 |  |  |
| O=S(=O)(/C=C/c1cccc(Cl)c1)Nc1cccc(OCc2cn(Cc3nc4ccccc4s3)nn2)c1 | 1 | 0.98 |  |  |
| O=S(=O)(/C=C/c1cccc(Cl)c1)Nc1cccc(OCc2cn(Cc3ccsc3Br)nn2)c1 | 0.96 | 0.98 |  |  |
| O=[N+]([O-])c1cccc(/C=C/S(=O)(=O)Nc2cccc(OCc3cn(Cc4cc5ccccc5[nH]4)nn3)c2)c1 | 1 | 0.98 |  |  |
| O=S(=O)(/C=C/c1cccc(Cl)c1)Nc1cccc(OCc2cn(Cc3cc4ccccc4s3)nn2)c1 |  |  | 729 |  |
| O=S(=O)(/C=C/c1cccc(C(F)(F)F)c1)Nc1cccc(-c2nnn(Cc3cccc(Cl)c3)n2)c1 | 0.97 | 1 |  |  |
| O=S(=O)(/C=C/c1cccc(F)c1)Nc1cccc(-c2nnn(Cc3cccc(Cl)c3)n2)c1 | 0.91 | 0.97 |  |  |
| O=S(=O)(/C=C/c1cccc(Cl)c1)Nc1cccc(-c2nnn(Cc3cccc(Cl)c3)n2)c1 | 0.97 | 1 |  |  |
| O=S(=O)(/C=C/c1cccc(Cl)c1)Nc1cccc(OCc2cn(Cc3ccccc3)nn2)c1 | 1 | 0.97 |  |  |
| O=S(=O)(/C=C/c1cccc(Cl)c1)Nc1cccc(OCc2cn(Cc3cc4ccccc4[nH]3)nn2)c1 | 1 | 0.99 |  |  |
| O=[N+]([O-])c1cccc(/C=C/S(=O)(=O)Nc2cccc(OCc3cn(Cc4nc5ccccc5s4)nn3)c2)c1 | 0.95 | 1 | 187 | 41 |
| O=S(=O)(/C=C/c1cccc(F)c1)Nc1cccc(OCc2cn(Cc3cccnc3)nn2)c1 | 0.99 | 1 |  |  |
| O=S(=O)(/C=C/c1cccc(F)c1)Nc1cccc(OCc2cn(Cc3cc4ccccc4s3)nn2)c1 | 0.95 | 0.95 | 119 | 48 |
| O=[N+]([O-])c1cccc(/C=C/S(=O)(=O)Nc2cccc(OCc3cn(Cc4cccnc4)nn3)c2)c1 | 1 | 1 |  |  |
| O=S(=O)(/C=C/c1cccc(C(F)(F)F)c1)Nc1cccc(OCc2cn(Cc3cc4ccccc4s3)nn2)c1 | 0.99 | 0.97 | 127 | 64 |
| O=S(=O)(/C=C/c1cccc(Cl)c1)Nc1cccc(OCc2cn(Cc3cccnc3)nn2)c1 | 0.98 | 0.99 |  |  |
| O=[N+]([O-])c1cccc(/C=C/S(=O)(=O)Nc2cccc(OCc3cn(Cc4cc5ccccc5s4)nn3)c2)c1 | 0.89 | 1 | 122 | 71 |
| O=S(=O)(/C=C/c1cccc(Br)c1)Nc1cccc(-c2nnn(Cc3cccc(Cl)c3)n2)c1 | 0.95 | 1 |  |  |
| Cc1cccc(/C=C/S(=O)(=O)Nc2cccc(-c3nnn(Cc4cccc(Cl)c4)n3)c2)c1 | 0.99 | 1 |  |  |
| Nc1cccc(/C=C/S(=O)(=O)Nc2cccc(OCc3cn(Cc4cc5ccccc5s4)nn3)c2)c1 | 0.88 | 0.99 | 71 | 41 |
| O=[N+]([O-])c1cccc(/C=C/S(=O)(=O)Nc2cccc(-c3nnn(Cc4cccc(Cl)c4)n3)c2)c1 | 0.94 | 1 |  |  |
| CS(=O)(=O)Nc1cccc(-c2nnn(Cc3cccc(Cl)c3)n2)c1 | 0.95 | 0.97 |  |  |
| O=S(=O)(/C=C/c1cccc(Cl)c1)Nc1cccc(OCc2cn(Cc3ccsc3)nn2)c1 | 0.99 | 0.95 |  |  |

From ChEMBL document CHEMBL1821717, “Synthesis and biochemical evaluation of triazole/tetrazole-containing sulfonamides against thrombin and related serine proteases” (Bioorg Med Chem Lett, 2011)
